The values that follow come from PMC8041284, “Tunable Methacrylamides for Covalent Ligand Directed Release Chemistry” (Journal of the American Chemical Society, 2021).

The assay deals with BTK (Homo sapiens, UniProt Q06187). Description: biochemical.
The mark [1] stands for this setting: read-out: BTK inhibition (%), 0.75 uM BTK, […] probe 3l, 15 min preincubation.

Read-outs that look alike come from different tables or passages of the source. Where a SMILES comes first, the peptide text is derived from it.

BTK, sequence (Q06187 402-655 limits assumed): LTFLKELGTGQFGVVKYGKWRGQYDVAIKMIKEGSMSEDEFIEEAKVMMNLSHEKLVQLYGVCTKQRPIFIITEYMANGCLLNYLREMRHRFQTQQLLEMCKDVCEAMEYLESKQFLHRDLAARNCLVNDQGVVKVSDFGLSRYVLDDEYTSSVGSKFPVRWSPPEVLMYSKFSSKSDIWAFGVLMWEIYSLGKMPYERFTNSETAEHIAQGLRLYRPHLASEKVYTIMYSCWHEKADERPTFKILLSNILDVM

With `C[C@]12CC[C@H](O)CC1=CC[C@@H]1[C@@H]2CC[C@]2(C)C(=O)CC[C@@H]12` [PCM-0214686], the inhibition (usually the change of the read-out against control, counted positive when it falls) at 10 µM under setting [1] is -24.9%.

For `CN[C@@H]1[C@H](O)[C@H](NC)[C@H]2O[C@@]3(O)C(=O)C[C@@H](C)O[C@H]3O[C@@H]2[C@H]1O` [PCM-0214688], the inhibition at 10 µM under setting [1] was 2.3%.

Consider `C[C@@H](NCCc1ccc(O)cc1)[C@@H](O)c1ccc(O)cc1` [PCM-0214689], for which the inhibition at 10 µM under setting [1] was found to be 0%.

On to `CC[C@@H]1/C=C(\C)C[C@H](C)C[C@H](OC)[C@H]2O[C@@](O)(C(=O)C(=O)N3CCCC[C@H]3C(=O)O[C@H](/C(C)=C/[C@@H]3CC[C@H](Cl)[C@H](OC)C3)[C@H](C)[C@@H](O)CC1=O)[C@H](C)C[C@@H]2OC` [PCM-0214690], for which the inhibition at 10 µM under setting [1] was -13.8%. The same measure, in the same setting: as for `COc1ccc([C@@H]2CC(=O)c3c(O)cc(O[C@@H]4O[C@H](CO)[C@@H](O)[C@H](O)[C@H]4O[C@@H]4O[C@@H](C)[C@H](O)[C@@H](O)[C@H]4O)cc3O2)cc1O` [PCM-0214691], the figure is -10.3%; as for `COC(=O)N1CCN(Cc2cccc(NC(=O)Nc3ccc(C)nc3)c2F)CC1` [PCM-0214694], 0.8%. On the same count and under the same terms, for `Cc1onc(-c2ccccc2Cl)c1C(=O)N[C@@H]1C(=O)N2[C@@H]1SC(C)(C)[C@@H]2C(=O)O` [PCM-0214695] the value was -5.4%; for `C[C@@H]1CCO[C@H]2Cn3cc(C(=O)NCc4ccc(F)cc4F)c(=O)c(O)c3C(=O)N12` [PCM-0214696], 30.4%; for `CCc1c(C(=O)NCCc2ccc(N3CCCCC3)cc2)[nH]c2ccc(Cl)cc12` [PCM-0214697], 2.3%. Still for that read-out and setting: for `Cc1cc(N2CCOCC2)cc2[nH]c(-c3c(NC[C@@H](O)c4cccc(Cl)c4)cc[nH]c3=O)nc12` [PCM-0214699] the value was 109%; for `CC(=O)OCC(=O)[C@@]12OC(C)(C)O[C@@H]1C[C@H]1[C@@H]3C[C@H](F)C4=CC(=O)C=C[C@]4(C)[C@@]3(F)[C@@H](O)C[C@@]12C` [PCM-0214700], 19.3%; for `CC(=O)OCC(=O)[C@@]1(O)CC[C@H]2[C@@H]3CCC4=CC(=O)C=C[C@]4(C)[C@H]3[C@@H](O)C[C@@]21C` [PCM-0214701], 2.1%. Regarding `CC1(C)CC(=O)c2c(C(F)(F)F)nn(-c3ccc(C(N)=O)c(NC4CCC(OC(=O)CN)CC4)c3)c2C1` (centres unmarked) [PCM-0214703], the inhibition at 10 µM under setting [1] was 1.6%. With `NCc1c[nH]c(=S)n1[C@H]1CCc2c(F)cc(F)cc2C1` [PCM-0214705], the inhibition at 10 µM under setting [1] was -17.1%. Same read-out and setting: as for `COC(=O)C1=C(C)NC(C)=C(C(=O)O[C@@H]2CCCN(Cc3ccccc3)C2)[C@@H]1c1cccc([N+](=O)[O-])c1` [PCM-0214706], the figure is 80.9%; as for `CCC(=O)O[C@]1(C(=O)SCF)[C@H](C)C[C@H]2[C@@H]3C[C@H](F)C4=CC(=O)C=C[C@]4(C)[C@@]3(F)[C@@H](O)C[C@@]21C` [PCM-0214707], 15.2%; as for `COC(=O)[C@H](Cc1ccccc1)NC(=O)[C@@H](N)CC(=O)O` [PCM-0214708] (H-Asp-Phe-OMe), 6.2%. The same measure, in the same setting: for `C[C@@H]1C/C=C/C=C/C=C/C=C/[C@H](O[C@@H]2O[C@H](C)[C@@H](O)[C@H](N)[C@@H]2O)C[C@@H]2O[C@](O)(C[C@@H](O)C[C@H]3O[C@@H]3/C=C/C(=O)O1)C[C@H](O)[C@H]2C(=O)O` [PCM-0214709] the value was -22.6%. As to `C/C=C(\C)C(=O)N[C@@H](c1ccccc1)[C@@H](O)C(=O)O[C@H]1C[C@@]2(O)[C@@H](OC(=O)c3ccccc3)[C@@H]3[C@]4(OC(C)=O)CO[C@@H]4C[C@H](O)[C@@]3(C)C(=O)[C@H](OC(C)=O)C(=C1C)C2(C)C` [PCM-0214711], the inhibition at 10 µM (read-out: BTK inhibition (%)) is -8.6%.

With `CC(=O)O[C@]1(C(C)=O)CC[C@H]2[C@@H]3C=C(Cl)C4=CC(=O)[C@@H]5C[C@@H]5[C@]4(C)[C@H]3CC[C@@]21C` [PCM-0214712], the inhibition at 10 µM under setting [1] is 21%. The same measure, in the same setting: as for `NC[C@H](O)c1ccc(O)c(O)c1` [PCM-0214713], the figure is -5.4%; as for `CC(C)C[C@H](NC(=O)[C@@H](NC(=O)c1cccc(-c2ccccc2)n1)[C@@H](C)O)B(O)O` [PCM-0214714], 6.2%; as for `CO[C@H]1C(=O)[C@]2(C)[C@@H](OC)C[C@H]3OC[C@@]3(OC(C)=O)[C@H]2[C@H](OC(=O)c2ccccc2)[C@]2(O)C[C@H](OC(=O)[C@H](O)[C@@H](NC(=O)OC(C)(C)C)c3ccccc3)C(C)=C1C2(C)C` [PCM-0214715], -14.8%. Same read-out and setting: for `CC[C@H](C)C(=O)O[C@H]1C[C@H](O)C=C2C=C[C@H](C)[C@H](CC[C@@H](O)C[C@@H](O)CC(=O)O)[C@H]21` [PCM-0214717] the value was -3.1%; for `CC(C)(C)NC(=O)[C@H]1CC[C@H]2[C@@H]3CC[C@H]4NC(=O)C=C[C@]4(C)[C@H]3CC[C@]12C` [PCM-0214718], 13.2%; for `C[C@H]1O[C@H](O[C@H]2[C@H](O)[C@@H](O)[C@@H](O[C@@H]([C@H](O)[C@@H](O)C=O)[C@H](O)CO)O[C@@H]2CO)[C@H](O)[C@@H](O)[C@@H]1N[C@H]1C=C(CO)[C@@H](O)[C@H](O)[C@H]1O` [PCM-0214720], -7%. Still for that read-out and setting: as for `CCCCC(=O)O[C@H]1CC[C@H]2[C@@H]3CCc4cc(O)ccc4[C@H]3CC[C@]12C` [PCM-0214721], the figure is 17.9%; as for `CC1(C)S[C@@H]2[C@H](NC(=O)C(C(=O)O)c3ccccc3)C(=O)N2[C@H]1C(=O)O` (some centres unmarked) [PCM-0214723], 10.1%; as for `CC1(C)S[C@@H]2[C@H](NC(=O)[C@H](C(=O)O)c3ccsc3)C(=O)N2[C@H]1C(=O)O` [PCM-0214724], -1.6%. In the case of `Cc1cc([C@@H](C)Nc2ccccc2C(=O)O)c2nc(N3CCOCC3)cc(=O)n2c1` [PCM-0214725], the inhibition at 10 µM under setting [1] was -6.9%. The same measure, in the same setting: as for `COc1cc2c(c(OC)c1OC)-c1c(cc3c(c1OC)OCO3)CC(C)C(C)C2` (centres unmarked) [PCM-0214727], the figure is 11.7%; as for `O=C1C(=O)c2ccccc2C(O)=C1C1CCC(c2ccc(Cl)cc2)CC1` (centres unmarked) [PCM-0214729], 16.3%; as for `C=C(C)[C@@H]1CC[C@]2(C(=O)O)CC[C@]3(C)[C@H](CC[C@@H]4[C@@]5(C)CC[C@H](O)C(C)(C)[C@@H]5CC[C@]43C)[C@@H]12` [PCM-0214730], 3.9%. Still for that read-out and setting: for `Cc1ncc(CCCN(C)C)cc1Nc1ncc2c(n1)-c1ccc(C(F)(F)F)cc1NC(=S)C2` [PCM-0214732] the value was 24.1%.

Regarding `CCOC(=O)CCC(=O)O[C@H]1[C@H](O[C@@H]2[C@@H](C)[C@H](O[C@H]3C[C@@](C)(OC)[C@@H](O)[C@H](C)O3)[C@@H](C)C(=O)O[C@H](CC)[C@@](C)(O)[C@H](O)[C@@H](C)C(=O)[C@H](C)C[C@@]2(C)O)O[C@H](C)C[C@@H]1N(C)C` [PCM-0214733], the inhibition at 10 µM under setting [1] was -14.8%. On the same count and under the same terms, for `NC(N)=Nc1nc(CSCC/C(N)=N/S(N)(=O)=O)cs1` [PCM-0214735] the value was -26.2%; for `CC[C@H]1OC(=O)[C@H](C)[C@@H](O[C@H]2C[C@@](C)(OC)[C@@H](O)[C@H](C)O2)[C@H](C)[C@@H](O[C@@H]2O[C@H](C)C[C@H](N(C)C)[C@H]2O)[C@](C)(O)C[C@@H](C)/C(=N\OCOCCOC)[C@H](C)[C@@H](O)[C@]1(C)O` [PCM-0214736], 3.9%. Same read-out and setting: as for `Cc1cn([C@H]2O[C@@H](CO)[C@H](O)[C@H]2F)c(=O)[nH]c1=O` [PCM-0214737], the figure is 23.3%; as for `CC(C)CN(C[C@@H](O)[C@H](Cc1ccccc1)NC(=O)O[C@H]1CCOC1)S(=O)(=O)c1ccc(N)cc1` [PCM-0214738], -41.2%; as for `O=C(O)c1cc(N=Nc2ccc(S(=O)(=O)Nc3ccccn3)cc2)ccc1O` [PCM-0214740], 48.3%. On to `C[C@]12CC[C@H](O)C[C@@H]1CC[C@@H]1[C@@H]2CC[C@]2(C)C(=O)CC[C@@H]12` [PCM-0214741], for which the inhibition at 10 µM (read-out: BTK inhibition (%)) is -21.8%.

Regarding `C[C@H](CCC(=O)O)[C@H]1CC[C@H]2[C@@H]3CC[C@@H]4C[C@H](O)CC[C@]4(C)[C@H]3CC[C@]12C` [PCM-0214742], under setting [1], the inhibition at 10 µM is -8.6%. On the same count and under the same terms, as for `CCOc1ccc2ccccc2c1C(=O)N[C@@H]1C(=O)N2[C@@H]1SC(C)(C)[C@@H]2C(=O)O` [PCM-0214744], the figure is -11.7%; as for `O=C(O)c1cc(N=Nc2ccc(O)c(C(=O)O)c2)ccc1O` [PCM-0214745], 17.2%; as for `C=C1CC[C@H](O)C/C1=C/C=C1\CCC[C@]2(C)[C@@H]([C@H](C)/C=C/[C@H](C)C(C)C)CC[C@@H]12` [PCM-0214746], -23.3%. On to `Cc1onc(-c2c(Cl)cccc2Cl)c1C(=O)N[C@@H]1C(=O)N2[C@@H]1SC(C)(C)[C@@H]2C(=O)O` [PCM-0214747], for which, under setting [1], the inhibition at 10 µM was 9.3%. As to `C[C@]12CC[C@@H]3c4ccc(O)cc4CC[C@H]3[C@@H]1CC[C@@H]2OC(=O)CCC1CCCC1` [PCM-0214748], under setting [1], the inhibition at 10 µM was 0.8%. Turning to `COc1cccc2c1C(=O)c1c(O)c3c(c(O)c1C2=O)C[C@@](O)(C(=O)CO)C[C@@H]3O[C@H]1C[C@H](N)[C@H](O[C@@H]2CCCCO2)[C@H](C)O1` [PCM-0214749], the inhibition at 10 µM under setting [1] was 53.7%. Still for that read-out and setting: as for `CC(C)[C@H](N)C(=O)OCC(CO)OCn1cnc2c(=O)[nH]c(N)nc21` (some centres unmarked) [PCM-0214750], the figure is -2.3%; as for `OC[C@@H](O)CN1CCN(c2ccccc2)CC1` [PCM-0214752], -22.8%; as for `COc1cc(C(=O)NC2CCCNC2)cc(OC)c1OC` (centres unmarked) [PCM-0214753], -3.1%. Same read-out and setting: as for `CCCCCCCCCCCCCCCCO` [PCM-0214755], the figure is -3.9%; as for `Nc1c(CC(=O)O)cccc1C(=O)c1ccccc1` [PCM-0214756], -17.2%. The same measure, in the same setting: as for `CC(C)NCC(O)c1ccccc1Cl` (centres unmarked) [PCM-0214757], the figure is 10.9%; as for `CC1(C)S[C@@H]2[C@H](NC(=O)[C@H](NC(=O)N3CCN(S(C)(=O)=O)C3=O)c3ccccc3)C(=O)N2[C@H]1C(=O)O` [PCM-0214758], -19.5%.

For `CN(C)Cc1ccc(S(=O)(=O)n2ccc(/C=C/C(=O)NO)c2)cc1` [PCM-0214759], the inhibition at 10 µM under setting [1] is 9.3%.
